According to PubChem BioAssay (NCI):
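Method: 48-hour compound exposure of cells in 96-well plates, five concentrations, linear interpolation of endpoints. GI50: concentration for 50% inhibition of growth. TGI: concentration producing complete growth inhibition.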

How the values were obtained:
Assay in all cases: growth of human tumour cells (NCI), 48 h
A549 NSCLC = test system: A549 NSCLC
HT29 colon = test system: HT29 colon
K-562 leukemia = test system: K-562 leukemia
NCI-H23 lung = test system: NCI-H23 lung
NCI-H460 lung = test system: NCI-H460 lung
NCI/ADR-RES ovarian = test system: NCI/ADR-RES ovarian
SF-268 CNS = test system: SF-268 CNS
SK-OV-3 ovarian = test system: SK-OV-3 ovarian
SN12C renal = test system: SN12C renal
SNB-19 CNS = test system: SNB-19 CNS

| Compound | GI50 (A549 NSCLC) | TGI (A549 NSCLC) | GI50 (HT29 colon) | TGI (HT29 colon) | GI50 (K-562 leukemia) | TGI (K-562 leukemia) | GI50 (NCI-H23 lung) | TGI (NCI-H23 lung) | GI50 (NCI-H460 lung) | TGI (NCI-H460 lung) | GI50 (NCI/ADR-RES ovarian) | TGI (NCI/ADR-RES ovarian) | GI50 (SF-268 CNS) | TGI (SF-268 CNS) | GI50 (SK-OV-3 ovarian) | TGI (SK-OV-3 ovarian) | GI50 (SN12C renal) | TGI (SN12C renal) | GI50 (SNB-19 CNS) | TGI (SNB-19 CNS) |
| --- | --- | --- | --- | --- | --- | --- | --- | --- | --- | --- | --- | --- | --- | --- | --- | --- | --- | --- | --- | --- |
| C=C1CCC2(C#N)[C@H]3[C@H](CC[C@@H]2C)[C@@H](C)C[C@@H](CC(C)(C)NC(=O)CN2CCC2=O)[C@H]13 (stereo not given in full) | 13.3 µM | 50.4 µM | 10.5 µM | 24.8 µM | 3.69 µM | 53.1 µM | 10.4 µM | 36.7 µM | 7.81 µM | 20.5 µM | 11.3 µM | 38.4 µM | 14.2 µM | 42.3 µM | 15.8 µM | 50.2 µM | 11.9 µM | 49.5 µM | 9.58 µM | 48.4 µM |
| C1=C2CCCC3=Cc4ccccc4OC23Oc2ccccc21 | 5.87 µM | > 100 µM | 3.52 µM | 17.9 µM | 3.54 µM | > 100 µM | 6.2 µM | > 100 µM | 3.47 µM | 16.4 µM | 3.18 µM | 55.7 µM | 4.74 µM | > 100 µM | 3.52 µM | > 100 µM | 4.42 µM | > 100 µM | 4.01 µM | > 100 µM |
| O=P1(S)OC[C@H]2O[C@@H]3[C@H](F)[C@@H]2OP(O)(=S)OC[C@H]2O[C@H]([C@H](F)[C@@H]2O1)n1cnc2c(ncnc21)NC/C=C/CNc1ncnc2c1ncn23 (stereo not given in full) | > 100 µM | > 100 µM | 43.7 µM | > 100 µM | > 100 µM | > 100 µM | > 100 µM | > 100 µM | > 100 µM | > 100 µM | > 100 µM | > 100 µM | > 100 µM | > 100 µM | 5.08 µM | > 100 µM | > 100 µM | > 100 µM | > 100 µM | > 100 µM |
| Cc1ccc(S(=O)(=O)c2nc(-c3ccccc3)oc2S(C)=O)cc1 (stereo not given) | 5.23 µM | 18.5 µM | 1.81 µM | 5.03 µM | 1.4 µM | 4.77 µM | 1.91 µM | 3.97 µM | 2.92 µM | 8.98 µM | 2.14 µM | 4.89 µM | 2.14 µM | 4.14 µM | 15.3 µM | 28.6 µM | 1.68 µM | 3.43 µM | 3.35 µM | 11.2 µM |
| CC1=Nc2ccccc2/C1=C\c1c(C)[nH]c2ccccc12 |  | 73.6 µM |  | 25.4 µM |  | > 100 µM |  | 38.6 µM |  | 44.6 µM |  | 38.3 µM |  | 28.6 µM |  | 51.8 µM |  | 72.5 µM |  | 35.5 µM |
| CCOc1c(N=Nc2ccccc2Cl)c(-c2ccccc2)nn1C(=S)S |  | > 100 µM |  | > 100 µM |  | > 100 µM |  | > 100 µM |  | > 100 µM |  | > 100 µM |  | > 100 µM |  | > 100 µM |  | 34.8 µM |  | > 100 µM |
| O=c1[nH]c2nc(NC3CCOCC3)ncc2cc1Oc1ccc(F)cc1F | > 25 µM | > 25 µM | > 25 µM | > 25 µM | > 25 µM | > 25 µM | > 25 µM | > 25 µM | > 25 µM | > 25 µM | > 25 µM | > 25 µM | > 25 µM | > 25 µM | > 25 µM | > 25 µM | > 25 µM | > 25 µM | > 25 µM | > 25 µM |
